Experimental data: ChEMBL document CHEMBL1146055, “Arylphthalazines. Part 2: 1-(Isoquinolin-5-yl)-4-arylamino phthalazines as potent inhibitors of VEGF receptors I and II” (Bioorg Med Chem Lett, 2006)

Key:
[1] = target: Vascular endothelial growth factor receptor 2 (Homo sapiens, UniProt P35968); experiment: Inhibition of VEGFR2 by HTRF assay
[2] = target: Hepatocyte growth factor receptor (Homo sapiens) (UniProt P08581); experiment: Inhibition of c-Met at 10 uM
[3] = target: Receptor-type tyrosine-protein kinase FLT3 (Homo sapiens) (UniProt P36888); experiment: Inhibition of FLT3 at 10 uM
Sequence of Receptor-type tyrosine-protein kinase FLT3 (Homo sapiens) (P36888 whole entry): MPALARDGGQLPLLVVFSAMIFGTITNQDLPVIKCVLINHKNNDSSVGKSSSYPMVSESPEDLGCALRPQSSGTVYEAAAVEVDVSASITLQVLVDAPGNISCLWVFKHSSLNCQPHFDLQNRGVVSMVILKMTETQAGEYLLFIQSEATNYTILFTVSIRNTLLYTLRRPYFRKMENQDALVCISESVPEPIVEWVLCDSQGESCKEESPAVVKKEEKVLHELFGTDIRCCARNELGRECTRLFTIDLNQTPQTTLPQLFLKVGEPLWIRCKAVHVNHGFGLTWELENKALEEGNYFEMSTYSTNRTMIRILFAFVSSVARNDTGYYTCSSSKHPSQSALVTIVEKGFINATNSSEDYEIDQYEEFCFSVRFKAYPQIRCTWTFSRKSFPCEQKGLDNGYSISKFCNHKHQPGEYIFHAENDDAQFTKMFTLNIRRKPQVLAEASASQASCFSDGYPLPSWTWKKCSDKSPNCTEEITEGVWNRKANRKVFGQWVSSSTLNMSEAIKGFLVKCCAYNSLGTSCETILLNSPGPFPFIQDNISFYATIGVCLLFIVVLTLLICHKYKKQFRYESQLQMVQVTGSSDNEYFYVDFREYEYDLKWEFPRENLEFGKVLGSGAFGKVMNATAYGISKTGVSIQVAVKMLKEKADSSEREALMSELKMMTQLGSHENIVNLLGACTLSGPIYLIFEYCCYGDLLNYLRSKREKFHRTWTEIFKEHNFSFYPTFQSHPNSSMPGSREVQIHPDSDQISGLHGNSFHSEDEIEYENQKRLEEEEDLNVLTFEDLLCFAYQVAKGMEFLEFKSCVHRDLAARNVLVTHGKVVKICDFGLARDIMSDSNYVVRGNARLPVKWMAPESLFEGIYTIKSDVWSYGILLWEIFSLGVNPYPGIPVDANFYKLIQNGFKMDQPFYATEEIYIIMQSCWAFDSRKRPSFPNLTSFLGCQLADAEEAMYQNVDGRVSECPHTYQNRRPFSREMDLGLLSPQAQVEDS

[4] = target: Insulin-like growth factor 1 receptor (Homo sapiens) (UniProt P08069); experiment: Inhibition of IGF1R at 10 uM
Sequence of Insulin-like growth factor 1 receptor (Homo sapiens) (P08069 31-736 limits assumed): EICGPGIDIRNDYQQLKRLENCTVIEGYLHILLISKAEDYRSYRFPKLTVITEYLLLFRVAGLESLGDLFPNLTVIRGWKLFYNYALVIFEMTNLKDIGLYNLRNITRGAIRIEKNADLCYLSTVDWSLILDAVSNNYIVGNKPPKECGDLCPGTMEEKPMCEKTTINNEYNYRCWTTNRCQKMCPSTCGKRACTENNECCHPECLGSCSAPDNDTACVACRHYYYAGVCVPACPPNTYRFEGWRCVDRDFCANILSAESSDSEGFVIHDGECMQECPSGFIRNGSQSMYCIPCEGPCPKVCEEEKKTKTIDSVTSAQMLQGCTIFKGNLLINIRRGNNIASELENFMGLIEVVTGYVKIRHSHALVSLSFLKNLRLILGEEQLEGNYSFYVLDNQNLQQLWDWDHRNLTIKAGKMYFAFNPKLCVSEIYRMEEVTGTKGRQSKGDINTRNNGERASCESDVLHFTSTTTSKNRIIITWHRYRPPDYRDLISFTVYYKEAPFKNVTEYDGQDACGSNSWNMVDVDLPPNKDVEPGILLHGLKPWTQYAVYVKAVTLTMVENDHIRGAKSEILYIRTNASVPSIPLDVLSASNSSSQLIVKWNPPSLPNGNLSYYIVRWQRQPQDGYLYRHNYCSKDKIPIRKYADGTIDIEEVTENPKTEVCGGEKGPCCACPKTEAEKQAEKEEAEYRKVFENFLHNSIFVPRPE
Sequence of Insulin-like growth factor 1 receptor (Homo sapiens) (P08069 741-1367 limits assumed): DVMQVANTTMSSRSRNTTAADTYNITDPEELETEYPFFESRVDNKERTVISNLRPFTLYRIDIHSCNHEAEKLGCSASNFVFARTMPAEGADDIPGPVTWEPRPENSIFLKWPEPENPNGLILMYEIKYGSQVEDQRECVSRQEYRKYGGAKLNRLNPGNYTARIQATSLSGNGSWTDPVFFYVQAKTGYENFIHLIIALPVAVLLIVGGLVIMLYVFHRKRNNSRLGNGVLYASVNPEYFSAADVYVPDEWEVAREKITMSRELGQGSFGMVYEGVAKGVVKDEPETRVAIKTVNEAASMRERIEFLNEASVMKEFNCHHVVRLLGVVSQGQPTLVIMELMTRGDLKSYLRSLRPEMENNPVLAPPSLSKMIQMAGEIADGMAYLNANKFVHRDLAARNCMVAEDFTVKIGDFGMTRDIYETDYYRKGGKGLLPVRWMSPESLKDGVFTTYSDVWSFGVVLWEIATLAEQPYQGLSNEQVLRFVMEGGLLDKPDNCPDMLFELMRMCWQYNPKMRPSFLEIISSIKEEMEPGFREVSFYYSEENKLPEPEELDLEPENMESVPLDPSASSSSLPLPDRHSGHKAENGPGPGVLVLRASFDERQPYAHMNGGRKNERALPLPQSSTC

[5] = target: Insulin receptor (Homo sapiens) (UniProt P06213); experiment: Inhibition of InsR at 10 uM
Sequence of Insulin receptor (Homo sapiens) (P06213 28-758 limits assumed): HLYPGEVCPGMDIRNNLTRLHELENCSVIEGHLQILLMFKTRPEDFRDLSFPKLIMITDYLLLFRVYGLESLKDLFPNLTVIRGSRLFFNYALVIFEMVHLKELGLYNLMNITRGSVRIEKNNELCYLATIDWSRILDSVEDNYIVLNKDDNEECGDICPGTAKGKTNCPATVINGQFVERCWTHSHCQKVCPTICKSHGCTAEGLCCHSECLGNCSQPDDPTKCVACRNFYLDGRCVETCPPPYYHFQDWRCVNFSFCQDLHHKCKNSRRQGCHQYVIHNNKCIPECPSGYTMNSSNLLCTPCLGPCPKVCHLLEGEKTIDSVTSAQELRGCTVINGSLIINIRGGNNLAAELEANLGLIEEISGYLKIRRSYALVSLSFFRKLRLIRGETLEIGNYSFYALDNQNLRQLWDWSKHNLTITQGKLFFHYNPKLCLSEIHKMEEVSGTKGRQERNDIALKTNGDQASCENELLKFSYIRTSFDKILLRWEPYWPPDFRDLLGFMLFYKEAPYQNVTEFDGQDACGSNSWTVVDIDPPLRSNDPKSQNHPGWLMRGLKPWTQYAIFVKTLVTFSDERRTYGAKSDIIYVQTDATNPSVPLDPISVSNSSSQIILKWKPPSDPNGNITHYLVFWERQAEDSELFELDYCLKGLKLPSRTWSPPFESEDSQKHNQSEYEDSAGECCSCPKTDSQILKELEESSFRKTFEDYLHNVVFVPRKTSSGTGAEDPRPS
Sequence of Insulin receptor (Homo sapiens) (P06213 763-1382 limits assumed): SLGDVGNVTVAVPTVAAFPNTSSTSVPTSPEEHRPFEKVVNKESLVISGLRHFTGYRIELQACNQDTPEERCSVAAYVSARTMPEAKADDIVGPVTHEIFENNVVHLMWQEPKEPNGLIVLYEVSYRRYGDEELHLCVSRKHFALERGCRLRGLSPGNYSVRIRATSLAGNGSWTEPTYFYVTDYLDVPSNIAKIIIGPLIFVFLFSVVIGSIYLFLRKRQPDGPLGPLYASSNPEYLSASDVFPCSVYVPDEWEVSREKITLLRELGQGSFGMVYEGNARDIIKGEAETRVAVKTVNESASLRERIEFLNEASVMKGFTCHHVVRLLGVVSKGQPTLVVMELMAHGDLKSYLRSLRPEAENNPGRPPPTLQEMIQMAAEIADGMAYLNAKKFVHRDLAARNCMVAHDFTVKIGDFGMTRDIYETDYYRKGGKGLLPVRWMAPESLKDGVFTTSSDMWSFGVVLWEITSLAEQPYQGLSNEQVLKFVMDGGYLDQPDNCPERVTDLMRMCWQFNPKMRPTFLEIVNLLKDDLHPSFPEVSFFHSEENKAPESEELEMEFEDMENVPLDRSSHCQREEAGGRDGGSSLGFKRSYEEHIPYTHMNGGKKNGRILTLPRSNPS

[6] = target: Epidermal growth factor receptor (Homo sapiens) (UniProt P00533); settings: 10 uM
Description: Inhibition of EGFR at 10 uM

Sequence of Vascular endothelial growth factor receptor 2 (P35968 whole entry): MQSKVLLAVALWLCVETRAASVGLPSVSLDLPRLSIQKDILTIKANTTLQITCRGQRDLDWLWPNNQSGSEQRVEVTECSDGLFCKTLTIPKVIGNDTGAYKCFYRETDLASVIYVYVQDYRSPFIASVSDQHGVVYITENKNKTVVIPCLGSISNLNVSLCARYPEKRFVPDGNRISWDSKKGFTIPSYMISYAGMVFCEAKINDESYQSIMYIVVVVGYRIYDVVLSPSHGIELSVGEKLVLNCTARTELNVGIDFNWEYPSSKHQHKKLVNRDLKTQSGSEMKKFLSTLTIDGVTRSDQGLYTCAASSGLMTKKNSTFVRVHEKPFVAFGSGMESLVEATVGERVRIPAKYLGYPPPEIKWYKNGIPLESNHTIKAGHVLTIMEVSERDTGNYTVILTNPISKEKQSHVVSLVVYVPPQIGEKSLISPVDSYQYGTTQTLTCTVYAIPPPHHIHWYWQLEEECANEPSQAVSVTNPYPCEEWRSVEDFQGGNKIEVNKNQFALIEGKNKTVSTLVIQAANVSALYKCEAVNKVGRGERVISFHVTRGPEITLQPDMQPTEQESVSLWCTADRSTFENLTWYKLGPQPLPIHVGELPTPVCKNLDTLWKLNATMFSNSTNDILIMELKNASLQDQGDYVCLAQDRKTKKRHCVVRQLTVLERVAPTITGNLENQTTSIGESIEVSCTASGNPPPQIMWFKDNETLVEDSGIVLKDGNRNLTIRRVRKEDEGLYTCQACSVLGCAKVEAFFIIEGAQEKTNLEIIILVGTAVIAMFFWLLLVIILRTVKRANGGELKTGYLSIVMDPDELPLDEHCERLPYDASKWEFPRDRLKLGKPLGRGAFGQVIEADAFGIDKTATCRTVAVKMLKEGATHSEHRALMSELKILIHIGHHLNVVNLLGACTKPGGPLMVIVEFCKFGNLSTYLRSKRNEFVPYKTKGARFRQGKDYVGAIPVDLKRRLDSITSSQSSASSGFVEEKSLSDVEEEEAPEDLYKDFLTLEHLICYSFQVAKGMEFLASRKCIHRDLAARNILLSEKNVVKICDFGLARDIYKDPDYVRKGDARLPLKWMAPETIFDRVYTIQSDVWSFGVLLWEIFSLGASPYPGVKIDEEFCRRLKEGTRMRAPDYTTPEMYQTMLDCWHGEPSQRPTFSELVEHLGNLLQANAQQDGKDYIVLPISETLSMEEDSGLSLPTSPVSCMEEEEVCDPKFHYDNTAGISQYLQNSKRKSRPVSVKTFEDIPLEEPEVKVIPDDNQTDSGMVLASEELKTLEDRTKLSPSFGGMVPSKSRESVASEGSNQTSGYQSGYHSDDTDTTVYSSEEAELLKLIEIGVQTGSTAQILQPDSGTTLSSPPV

| IC50 [1] | inhibition [2] | inhibition [3] | inhibition [4] | inhibition [5] | inhibition [6] | SMILES |
| --- | --- | --- | --- | --- | --- | --- |
| 0.048 µM | 2% | 33% | 25% | 10% | 13% | Clc1ccc(Nc2nnc(-c3cccc4cnccc34)c3ccccc23)cc1 |
| > 10 µM |  |  |  |  |  | Cn1cc(-c2nnc(Nc3ccc(Cl)cc3)c3ccccc23)cn1 |
| > 10 µM |  |  |  |  |  | Clc1ccc(Nc2nnc(-c3cn[nH]c3)c3ccccc23)cc1 |
